{"source": "patent US20190060300A1", "about": "“Self-Emulsifying Compositions of CB2 Receptor Modulators” (priority 2016, published 2019)", "key": {"[1]": {"biological_target": "CB2 receptor (Homo sapiens, UniProt P34972)", "sequence (P34972 whole entry)": "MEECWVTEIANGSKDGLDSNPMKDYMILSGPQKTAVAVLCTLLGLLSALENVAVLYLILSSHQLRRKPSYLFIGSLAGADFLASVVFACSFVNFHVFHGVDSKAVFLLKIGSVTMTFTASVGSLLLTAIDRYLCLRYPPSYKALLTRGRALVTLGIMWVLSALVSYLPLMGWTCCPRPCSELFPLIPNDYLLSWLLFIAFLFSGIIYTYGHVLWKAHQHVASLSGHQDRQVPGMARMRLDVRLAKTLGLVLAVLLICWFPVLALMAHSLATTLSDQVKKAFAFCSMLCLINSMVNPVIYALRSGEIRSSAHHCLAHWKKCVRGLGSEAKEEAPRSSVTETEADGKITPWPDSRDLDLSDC", "conditions": "Chicca A. et al; cited from earlier work"}, "[2]": {"conditions": "Sköld et al. 2006; cited from earlier work"}, "[3]": {"experiment": "Dissolution of MH in the SEDDS vehicle of Example 1", "assay_type": "physicochemical", "experimental": "Preparation of MH in SEDDS vehicle. • 1. The SEDDS vehicle of the oral composition of Example 1 was warmed up separately to 42° C. for 13 min. In order to prepare about 5% (g/vol) MH solution, the vehicle (380 mg) was added to MH (22.8 mg) directly and vortexed for 60 sec to obtain the oral composition. • 2. The SEDDS vehicle of the oral composition of Example 1 was warmed up separately to 52° C. for 15 min. In order to prepare about 5% (g/vol) MH solution, the vehicle (380.18 mg) was added to MH (21.2 mg) directly and vortexed for 100 sec to obtain the oral composition. Then the solution was warmed up to 50° C. for 10 min. Then the solution was warmed up to 57° C. for 13 min and vortexed for 180 sec. • 3. The SEDDS vehicle of the oral composition of Example 1 was warmed up separately to 55° C. for 15 min. In order to prepare about 1% (g/vol) MH solution, the vehicle (396 mg) was added to MH (4 mg) directly and vortexed for 60 sec to obtain the oral composition. Then the solution was warmed up to 55° C. for 10 min and vortexed for 60 sec."}, "[4]": {"experiment": "Dissolution of MH in oral formulations V-01, V-02, V-03", "assay_type": "physicochemical", "experimental": "The solution of 4-O-methylhonokiol (MH) was prepared in oral formulation according to Table 1 below."}, "[5]": {"conditions": "according to its MSDS; cited from earlier work"}, "[6]": {"conditions": "oral and topical administration, Chaves 2008; cited from earlier work"}, "[7]": {"system": "mouse model of schizophrenia (PCP)", "experiment": "Forced-swimming test after oral BCP in SEDDS, PCP mouse model of schizophrenia", "assay_type": "in vivo", "conditions": "gavage twice a week for 3 weeks, adolescent mice", "experimental": "(§1) The mouse model of schizophrenia was established.\n(§2) Sterile double-distilled water (DDW) was warmed for […] in a pre-warmed thermobath (35-38° C.). The SEDDS vehicle of the oral composition of Example 1 was warmed up separately to 35-38° C. for 10 min. In order to prepare BCP (5 mg/ml) for a final dose of 10 mg/kg, BCP (5 mg) was added directly into the vehicle (1 ml) and vortexed for 1 min to obtain the oral composition. Then the warmed sterile DDW (4 ml) at 35-38° C. was added at a ratio of 1:5 oral composition: DDW dilution and the diluted composition was vortexed for 1 min. In order to prepare BCP for a final dose of 5 mg/kg, 500 μl of BCP at 5 mg/ml were diluted with 500 μl SEDDS vehicle (1:2 dilution). Then the warmed sterile DDW (4 ml) at 35-38° C. was added at a ratio of 1:5 oral composition. DDW dilution and the diluted composition was vortexed for 1 min.\n(§3) BCP (5 mg/kg or 10 mg/kg in diluted self-emulsifying vehicle (Example 1)) was administered to adolescent mice (10 μl/g) by gavage twice a week (on Sunday and Wednesday) for 3 weeks (PND 43-62), a total of 6 injections. Control group and PCP-induced group received by gavage the oral formulation solution without the drug.\nTraining was conducted for 6 min a day before the test. […] On the test day, the total duration/frequency of immobility and climbing was counted every 2 minutes for 6 minutes. […]"}, "[8]": {"system": "mouse model of schizophrenia (PCP)", "experiment": "Open field test after oral BCP in SEDDS, PCP mouse model of schizophrenia", "assay_type": "in vivo", "conditions": "5 mg/kg BCP in SEDDS oral formulation, gavage, adolescent mice", "experimental": "as §1, §2\n(§4) BCP (5 mg/kg or 10 mg/kg in diluted self-emulsifying vehicle (Example 1)) was administered to adolescent mice (10 μl/g) by gavage twice a week (on Sunday and Wednesday) for 3 weeks (PND 43-62), a total of 6 injections. […]\nEach mouse was placed into the center of a clear open Plexiglas Chamber (40 cm*32 cm*30 cm) which its floor was divided to squares of 4 cm×5 cm. […] Ambulation behavior was manually counted for 8 min and data were collected in 2 min intervals."}, "[9]": {"system": "mouse model of schizophrenia (PCP)", "experiment": "Social interaction test in a novel environment after oral BCP in SEDDS, PCP mouse model", "assay_type": "in vivo", "conditions": "5 mg/kg BCP in SEDDS oral composition, gavage, adolescent mice", "experimental": "as §1, §2, §4\nEach mouse was placed in a novel cage together with a nonaggressive intruder mouse, of the same species, same sex and a similar age. The interaction between the two mice was recorded for 10 minutes with EthoVision software (Noldus). […]"}, "[10]": {"experiment": "Body weight of mice treated orally with BCP in SEDDS", "assay_type": "in vivo", "conditions": "5 mg/kg BCP in SEDDS oral composition, gavage, adolescent mice", "experimental": "as §3"}, "[11]": {"system": "mouse model of schizophrenia (PCP)", "experiment": "Forced-swimming test after oral BCP in canola oil, PCP mouse model of schizophrenia", "assay_type": "in vivo, mice", "experimental": "as §1\nBCP was diluted in canola oil.\nBCP (10 mg/kg diluted in canola oil) was administered to adolescent mice (PND 4362) by gavage twice a week (on Sunday and Wednesday) for 3 weeks, a total of 6 gavages. Control group and PCP-induced group received by gavage the oil vehicle.\nTraining was conducted for 6 min a day before the test. Each mouse was placed into a transparent glass cylinder filled with fresh water at 25° C. On the test day, the total dilation/frequency of immobility and climbing was counted every 2 minutes for 6 minutes. An increased immobility is an index of learning and habituation, therefore a positive behavioral adaptation with a stressful condition."}, "[12]": {"conditions": "air exposed, after 5 weeks; cited from earlier work"}}}
{"compound": "C=C1CC[C@H]2O[C@]2(C)CC[C@@H]2[C@@H]1CC2(C)C", "note": "[BCP oxide, Caryophyllene oxide]", "values": [{"measurement": "CB2 receptor binding", "setting": "[1]", "value": "inactivity"}, {"measurement": "allergenicity", "setting": "[2]", "value": "allergen"}]}
{"compound": "C=CCc1ccc(O)c(-c2ccc(OC)c(CC=C)c2)c1", "note": "[MH, 4-O-methylhonokiol]", "values": [{"measurement": "dissolution of MH in SEDDS vehicle", "setting": "[3]; about 1% (g/vol) MH, solution warmed up to 55° C. for 10 min, vortexed 60 sec", "value": "dissolved"}, {"measurement": "dissolution of MH in SEDDS vehicle", "setting": "[3]; about 1% (g/vol) MH, vehicle warmed to 55° C., vortexed 60 sec", "value": "did not dissolve"}, {"measurement": "dissolution of MH in SEDDS vehicle", "setting": "[3]; about 5% (g/vol) MH, solution warmed up to 50° C. for 10 min", "value": "did not dissolve"}, {"measurement": "dissolution of MH in SEDDS vehicle", "setting": "[3]; about 5% (g/vol) MH, solution warmed up to 57° C. for 13 min, vortexed 180 sec", "value": "dissolved"}, {"measurement": "dissolution of MH in SEDDS vehicle", "setting": "[3]; about 5% (g/vol) MH, vehicle warmed to 42° C., vortexed 60 sec", "value": "did not dissolve"}, {"measurement": "dissolution of MH in SEDDS vehicle", "setting": "[3]; about 5% (g/vol) MH, vehicle warmed to 52° C., vortexed 100 sec", "value": "did not dissolve"}, {"measurement": "dissolution of MH in oral formulation", "setting": "[4]; in V-01", "value": "dissolved"}, {"measurement": "dissolution of MH in oral formulation", "setting": "[4]; in V-02", "value": "dissolved"}, {"measurement": "dissolution of MH in oral formulation", "setting": "[4]; in V-03", "value": "dissolved"}]}
{"compound": "C/C1=C\\CC/C(C)=C/CC(C)(C)/C=C/C1", "note": "[alpha-humulene]", "values": [{"measurement": "CB2 receptor binding", "setting": "[1]", "value": "inactivity"}, {"measurement": "irritancy", "setting": "[5]", "value": "skin, eyes and respiratory irritant"}, {"measurement": "absorption", "setting": "[6]", "value": "rapid onset and relatively good absorption"}]}
{"compound": "trans-(1R,9S)-8-methylene4,11,11 trimethylbicyclo[7.2.0)]undec-4-ene [BCP]", "values": [{"measurement": "effect of PCP in the forced-swim test", "setting": "[7]; 5 mg/kg BCP in SEDDS oral formulation", "value": "reversed the effect of PCP"}, {"measurement": "effect of PCP in the forced-swim test", "setting": "[7]; 10 mg/kg BCP in SEDDS oral formulation", "value": "reversed the effect of PCP"}, {"measurement": "effect of PCP on activity in the open field test", "setting": "[8]", "value": "reversed the effect of PCP"}, {"measurement": "effect of PCP in the social interaction test", "setting": "[9]", "value": "reversed the effect of PCP"}, {"measurement": "body weight", "setting": "[10]", "value": "did not affect their body weight"}, {"measurement": "effect of 5 mg/kg PCP on the frequency of immobility in the forced swim test", "setting": "[11]; 10 mg/kg BCP in oil composition (canola oil), gavage twice a week for 3 weeks", "value": "did not reverse the effect"}, {"measurement": "reversing the frequency of climbing in the forced-swim test", "setting": "[11]; BCP in oil, gavage", "value": "ineffective"}, {"measurement": "original compound consumed by oxidation", "setting": "[12]", "value": "~50", "unit": "%"}]}
